According to US20240424148A1, “IN-VIVO PROXIMITY-BASED LABELING SYSTEMS AND APPLICATIONS THEREOF” (THE TRUSTEES OF PRINCETON UNIVERSITY, priority 2021, published 2024):

Assay: Redox potentials (electrochemistry)
Type: physicochemical
Excerpt: This reduced species is poised to undergo single electron transfer (SET) to the aryl azide, 1 (Ep/2=−0.61 V vs Ag/AgCl), thereby regenerating the catalyst (3) (FIG. 15).
Furthermore, electrochemical reduction of the Sn-chlorin e6 catalyst generated a species with significant spectral overlap with the transient-absorption signal of the photoexcited catalyst in the presence of NADH, supporting the generation of the reduced ground state catalyst.

In the case of [N-]=[N+]=Nc1ccc(C(=O)O)cc1 [compound 1, 4-azidobenzoic acid], the Ep/2 is reported as −0.61 V vs Ag/AgCl.
